From publication PMC7011955, “Synthesis and biological evaluation of certain hydrazonoindolin-2-one derivatives as new potent anti-proliferative agents” (Journal of Enzyme Inhibition and Medicinal Chemistry, 2018)

Key:
[1] = test system: breast cancer ZR-75 cell line; experiment: CellTiter-Glo Luminescent cell viability assay, anti-proliferative activity, ZR-75; format: cell-based; settings: Homo sapiens, ZR75; 30 µM single concentration, quadruplicate; read-out: Growth inhibition % ZR-75
Protocol: (§1) The anti-proliferative activity of the title compounds 3a-e, 5a-e, 7a-c, and 10a-l towards cancer cell lines, normal cell lines, and multidrug-resistant lung cancer NCI-H69AR cell line was determined using CellTiter-Glo™ Luminescent cell viability assay according to the previously published procedures[14]^,[15].
(§2) The cancer cell growth inhibitory activity of the synthesised 25 compounds 3a-e, 5a-e, 7a-c, and 10a-l was evaluated in vitro towards three human cancer cell lines, namely lung cancer A-549, human colon cancer HT-29, and breast cancer ZR-75 cell lines using CellTiter-Glo™ Luminescent cell viability assay. Sunitinib was included in this assay as a reference drug.
(§3) The prepared hydrazonoindolin-2-ones were first evaluated at preliminary anti-proliferative assay against the three cancer cell lines in quadruplicate at a single concentration of 30 µM. The data presented as percentage growth inhibition (GI%) caused by the test compounds (Table 1).

[2] = test system: breast cancer ZR-75 cell line; experiment: as above; format: cell-based, human
[3] = test system: colon cancer HT-29 cell line; experiment: CellTiter-Glo Luminescent cell viability assay, anti-proliferative activity, HT-29; format: cell-based; settings: Homo sapiens, mean ± SD of four separate experiments
[4] = test system: A-549, ZR-75 and HT-29 cell lines; experiment: Average anti-proliferative activity over the three cancer cell lines; format: cell-based, human; settings: average over A-549, ZR-75, HT-29; for inhibition at 30 µM / IC50: Homo sapiens; for inhibition at 30 µM: read-out: Average growth inhibition %; for inhibition at 30 µM / Average growth inhibition %: 30 µM
Protocol: as §1, §2, §3

[5] = test system: lung cancer A-549 cell line; experiment: CellTiter-Glo Luminescent cell viability assay, anti-proliferative activity, A-549; format: cell-based, human; settings: Homo sapiens; for IC50: A549, mean ± SD of four separate experiments, read-out: IC50 A-549; for inhibition at 30 µM: A549, 30 µM single concentration, quadruplicate, read-out: Growth inhibition % A-549
Protocol: as §1, §2, §3

[6] = test system: colon cancer HT-29 cell line; experiment: CellTiter-Glo Luminescent cell viability assay, anti-proliferative activity, HT-29; format: cell-based, human; settings: 30 µM single concentration, quadruplicate; for inhibition at 30 µM: Homo sapiens, HT-29, read-out: Growth inhibition % HT-29
Protocol: as §1, §2, §3

[7] = Homo sapiens, ZR75, mean ± SD of four separate experiments

IC50 [2, 7]	melting point	IC50 [3]	IC50 [4]	IC50 [5]	IC50 ([2]; mean ± SD of four separate experiments, listed as 4d)	SMILES	inhibition at 30 µM [1]	inhibition at 30 µM [4]	inhibition at 30 µM [5]	inhibition at 30 µM [6]	Average growth inhibition % [4]	Growth inhibition % HT-29 [6]
1.87 ± 0.26 µM	> 300 °C	> 30 µM	> 12.7 µM	6.07 ± 7.41 µM		O=C1Nc2ccc(Cl)cc2C1=NNc1nc(-c2ccc(Cl)cc2)cs1 [Compound 10g, 5-Chloro-3–(2-(4–(4-chlorophenyl)thiazol-2-yl)hydrazono)indolin-2-one]	52.8 ± 9.4%	35.4%	18.9 ± 3.2%	34.4 ± 23.6%		
	> 300 °C					O=C1Nc2ccc(Br)cc2C1=NNc1nc(-c2ccc(Br)cc2)cs1 [Compound 10l, 5-Bromo-3–(2-(4–(4-bromophenyl)thiazol-2-yl)hydrazono)indolin-2-one]	40.9 ± 16.7%	< 35%	-20.1 ± 5.9%	27.8 ± 4.3%	34.4%	
4.89 µM	295 to 297 °C	> 30 µM	> 17.4 µM	17.2 ± 2.56 µM		O=C1Nc2ccccc2C1=NNc1nc(-c2ccc(Cl)cc2)cs1 [Compound 10c, 3–(2-(4–(4-Chlorophenyl)thiazol-2-yl)hydrazono)indolin-2-one]	77.1 ± 10.9%	64.6%	31.4 ± 9.1%	85.4 ± 7%		
23.4 µM	> 300 °C	> 30 µM	> 25.4 µM	22.7 ± 3.71 µM		Cc1ccc(-c2csc(NN=C3C(=O)Nc4ccc(Cl)cc43)n2)cc1 [Compound 10f, 5-Chloro-3–(2-(4-(p-tolyl)thiazol-2-yl)hydrazono)indolin-2-one]	50.3 ± 33.6%	44%	27.4 ± 5.8%	54.4 ± 19.5%		
3.61 µM	> 300 °C	19.8 ± 1.63 µM	14.5 µM	20.1 ± 3.81 µM		O=C1Nc2ccc(Br)cc2C1=NNc1nc(-c2ccc(Cl)cc2)cs1 [Compound 10k, 5-Bromo-3–(2-(4–(4-chlorophenyl)thiazol-2-yl)hydrazono)indolin-2-one]	50.6 ± 11.5%	63.3%	72.4 ± 3.5%	66.8 ± 19.1%		
1.96 ± 0.85 µM	285 to 287 °C	8.26 ± 0.86 µM	5.45 µM	6.13 ± 0.76 µM		O=C1Nc2ccc(Br)cc2C1=NNc1nc(-c2ccccc2)cs1 [Compound 10i, 5-Bromo-3–(2-(4-phenylthiazol-2-yl)hydrazono)indolin-2-one]	97.5 ± 3.1%	> 80%	92.3 ± 6.2%	96.3 ± 5.9%	95.4%	
10.9 ± 2.81 µM	> 300 °C	15.2 ± 1.1 µM	13 µM	12.8 ± 1.4 µM		Cc1ccc(-c2csc(NN=C3C(=O)Nc4ccc(Br)cc43)n2)cc1 [Compound 10j, 5-Bromo-3–(2-(4–(4-tolyl)thiazol-2-yl)hydrazono)indolin-2-one]	73.1 ± 3.5%	> 80%	85.9 ± 9.1%	90.1 ± 5.3%	83.0%	
4.35 µM		19.4 ± 1.03 µM	11.1 µM	9.41 ± 1.29 µM		O=C1Nc2ccccc2C1=NNc1nc(-c2ccccc2)cs1 [Compound 10a, 3–(2-(4-Phenylthiazol-2-yl)hydrazono)indolin-2-one]	76.9 ± 7.1%	79.6%	70.7 ± 5.7%	91.2 ± 8.3%		
	> 300 °C					O=C1Nc2ccc(Cl)cc2C1=NNc1nc(-c2ccc(Br)cc2)cs1 [Compound 10h, 3–(2-(4–(4-Bromophenyl)thiazol-2-yl)hydrazono)-5-chloroindolin-2-one]	9 ± 19.2%		-2.6 ± 7.5%	-8.3 ± 43.8%		stimulated the growth

Second part, the molecule before the results:

SMILES	IC50 [2, 7]	melting point	IC50 [3]	IC50 [4]	IC50 [5]	IC50 ([2]; mean ± SD of four separate experiments, listed as 4d)	inhibition at 30 µM [1]	inhibition at 30 µM [4]	inhibition at 30 µM [5]	inhibition at 30 µM [6]	Average growth inhibition % [4]	Growth inhibition % HT-29 [6]
COC(=O)c1ccc(C=NN=C2C(=O)Nc3ccccc32)cc1 [Compound 3b, Methyl 4-(((2-oxoindolin-3-ylidene)hydrazono)methyl)benzoate]	9.72 ± 2.52 µM	225 to 227 °C	21.1 ± 1.86 µM	14 µM	11.2 ± 1.45 µM		80.6 ± 7%	> 80%	68.1 ± 2.8%	92.3 ± 3.7%	80.3%	
Cc1csc(C=NN=C2C(=O)Nc3ccccc32)n1 [Compound 5a, 3-(((4-Methylthiazol-2-yl)methylene)hydrazono)indolin-2-one]		238 to 240 °C					40.8 ± 25.7%	< 35%	2.4 ± 5%	37.9 ± 26.3%	27.0%	
Cc1csc(C=NN=C2C(=O)Nc3ccc(Cl)cc32)n1 [Compound 5c, 5-Chloro-3-(((4-methylthiazol-2-yl)methylene)hydrazono)indolin-2-one]	1.16 ± 0.39 µM	290 to 292 °C	4.29 ± 0.25 µM	2.53 µM	2.15 ± 0.23 µM		98 ± 2.6%	97.7%	98.8 ± 1.5%	96.4 ± 4.8%		
O=C1Nc2ccc(Br)cc2C1=NN=Cc1ccn[nH]1 [Compound 7c, 3-(((1H-pyrazol-5-yl)methylene)hydrazono)-5-bromoindolin-2-one]		264 to 266 °C					19.2 ± 22.8%	< 35%	32.8 ± 8.9%	28.8 ± 17.3%	26.9%	
CC(=O)c1ccc(C=NN=C2C(=O)Nc3ccccc32)cc1 [Compound 3a, 3-((4-Acetylbenzylidene)hydrazono)indolin-2-one]		228 to 230 °C		> 30 µM			29.6 ± 24.4%	< 35%	12.7 ± 7.1%	53.6 ± 12.2%	32.0%	
CC(=O)c1ccc(C=NN=C2C(=O)Nc3ccc(Br)cc32)cc1 [Compound 3d, 3-((4-Acetylbenzylidene)hydrazono)-5-bromoindolin-2-one]	> 30 µM	270 to 272 °C	> 30 µM	> 28.7 µM	26.1 ± 4.47 µM	> 30 µM	53.9 ± 14.4%	42.7%	17.3 ± 10.2%	56.8 ± 15.1%		
COC(=O)c1ccc(C=NN=C2C(=O)Nc3ccc(Cl)cc32)cc1 [Compound 3c, Methyl 4-(((5-chloro-2-oxoindolin-3-ylidene)hydrazono)methyl)benzoate]	4.2 ± 0.57 µM	266 to 268 °C	8.49 ± 1.01 µM	6.25 µM	6.07 ± 0.9 µM		98.9 ± 2.1%	> 80%	93.5 ± 2.8%	95.9 ± 4.7%	96.1%	
O=C1Nc2ccccc2C1=NNc1nc(-c2ccc(Br)cc2)cs1 [Compound 10d, 3–(2-(4–(4-Bromophenyl)thiazol-2-yl)hydrazono)indolin-2-one]							53.8 ± 19.2%	< 35%	12.3 ± 11.3%	20.6 ± 26.9%	28.9%	
